Calls of active or inactive are those of the source. The rule behind the calls is not given here.
Target: Coagulation factor XI (Homo sapiens) (UniProt P03951)
Test: human FXIa inhibitor potency, dose response, biochemical (AID 679)
Details: purified human factor XIa enzymatic activity assay

Chain of Coagulation factor XI (Homo sapiens) (P03951 19-387 limits assumed): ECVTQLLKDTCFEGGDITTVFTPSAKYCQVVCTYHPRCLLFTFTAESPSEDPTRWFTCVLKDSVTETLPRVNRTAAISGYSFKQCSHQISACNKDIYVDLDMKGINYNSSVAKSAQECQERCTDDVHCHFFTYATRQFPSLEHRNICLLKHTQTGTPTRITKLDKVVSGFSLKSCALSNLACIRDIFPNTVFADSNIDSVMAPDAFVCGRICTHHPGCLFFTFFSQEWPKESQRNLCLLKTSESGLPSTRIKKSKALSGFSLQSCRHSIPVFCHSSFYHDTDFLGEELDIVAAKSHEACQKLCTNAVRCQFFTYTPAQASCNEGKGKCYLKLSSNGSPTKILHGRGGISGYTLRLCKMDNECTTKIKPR
Chain of Coagulation factor XI (Homo sapiens) (P03951 388-625 limits assumed): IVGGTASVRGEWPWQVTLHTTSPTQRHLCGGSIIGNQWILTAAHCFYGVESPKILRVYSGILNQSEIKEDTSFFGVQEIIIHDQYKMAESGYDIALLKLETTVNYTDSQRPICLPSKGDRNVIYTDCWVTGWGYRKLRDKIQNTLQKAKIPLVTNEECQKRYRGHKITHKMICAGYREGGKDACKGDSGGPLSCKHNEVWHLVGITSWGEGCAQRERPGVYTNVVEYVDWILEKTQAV

IC50 | SMILES
> 50 µM (inactive) | CC1=C(C(=O)OC(C)C)C(c2coc3ccccc3c2=O)C2=C(CCCC2=O)N1 (stereo not drawn)
> 50 µM (inactive) | COC(=O)c1ccc(NC(=O)CC2C(=O)N(c3ccc(C)cc3)C(=O)N2CC(C)C)cc1 (stereo not drawn)
> 50 µM (inactive) | N#Cc1c(N)nc2c3c(sc(=N)c2c1N)NC(=O)CC3c1ccccc1Cl (stereo not drawn)

Reference: PubChem BioAssay AID679 (PCMD, 2007)
